Assay results reported in the NIST ThermoML archive (doi:10.1016/j.tca.2019.01.018).

What was measured:
[1] = xn = mol fraction of the nth substance listed; details: Ring tensiometer
[2] = Ring tensiometer

O [water] + CCCCCCn1cc[n+](C)c1.F[B-](F)(F)F
[1], x2 = 0
Details | surface tension liquid-gas [mN/m]
298.15 K | 71.8
308.15 K | 70.1
318.15 K | 68.4
328.15 K | 66.7
338.15 K | 65

CCCCCCn1cc[n+](C)c1.F[B-](F)(F)F [1-hexyl-3-methylimidazolium tetrafluoroborate]
[2]
Details | surface tension liquid-gas [mN/m]
298.15 K | 37.22
308.15 K | 36.62
318.15 K | 35.92
328.15 K | 35.22
338.15 K | 34.52

CCn1cc[n+](C)c1.F[B-](F)(F)F [1-ethyl-3-methylimidazolium tetrafluoroborate] + O
surface tension liquid-gas [mN/m], [1]
Details | x1 = 0.02 | x1 = 0.04 | x1 = 0.06 | x1 = 0.08 | x1 = 0.1 | x1 = 0.2 | x1 = 0.4 | x1 = 0.6 | x1 = 0.8 | x1 = 1
298.15 K | 60.27 | 57.47 | 56.49 | 55.52 | 54.98 | 53.92 | 53.61 | 53.23 | 52.73 | 52.05
308.15 K | 59.07 | 56.47 | 55.69 | 54.82 | 54.38 | 53.52 | 53.21 | 52.83 | 52.33 | 51.65
318.15 K | 57.87 | 55.47 | 54.89 | 54.12 | 53.78 | 53.12 | 52.81 | 52.43 | 51.93 | 51.25
328.15 K | 56.67 | 54.47 | 54.09 | 53.42 | 53.18 | 52.72 | 52.41 | 52.03 | 51.53 | 50.85
338.15 K | 55.47 | 53.47 | 53.29 | 52.72 | 52.58 | 52.32 | 52.01 | 51.63 | 51.13 | 50.45

CCn1cc[n+](C)c1.F[B-](F)(F)F [1-ethyl-3-methylimidazolium tetrafluoroborate]
[2]
Details | surface tension liquid-gas [mN/m]
298.15 K | 52.05
308.15 K | 51.65
318.15 K | 51.25
328.15 K | 50.85
338.15 K | 50.45

CCCCCCn1cc[n+](C)c1.F[B-](F)(F)F [1-hexyl-3-methylimidazolium tetrafluoroborate] + O
surface tension liquid-gas [mN/m], [1]
Details | x1 = 0.3 | x1 = 0.4 | x1 = 0.5 | x1 = 0.6 | x1 = 0.7 | x1 = 0.8 | x1 = 0.9 | x1 = 1
298.15 K | 38.1 | 37.7 | 37.54 | 37.42 | 37.33 | 37.26 | 37.23 | 37.22
308.15 K | 37.26 | 37.08 | 36.84 | 36.82 | 36.73 | 36.66 | 36.63 | 36.62
318.15 K | 36.56 | 36.28 | 36.34 | 36.12 | 36.03 | 35.86 | 35.93 | 35.92
328.15 K | 35.96 | 35.68 | 35.64 | 35.42 | 35.33 | 35.26 | 35.23 | 35.22
338.15 K | 35.26 | 34.98 | 34.84 | 34.72 | 34.63 | 34.56 | 34.53 | 34.52

CCCCn1cc[n+](C)c1.F[B-](F)(F)F [1-butyl-3-methylimidazolium tetrafluoroborate] + O
surface tension liquid-gas [mN/m], [1]
Details | x1 = 0.02 | x1 = 0.04 | x1 = 0.06 | x1 = 0.08 | x1 = 0.1 | x1 = 0.2 | x1 = 0.4 | x1 = 0.6 | x1 = 0.8 | x1 = 1
298.15 K | 49.07 | 47.16 | 47.05 | 46.95 | 46.8 | 46.3 | 45.9 | 45.4 | 45 | 44.6
308.15 K | 48.15 | 45.95 | 45.85 | 45.75 | 45.65 | 45.45 | 44.95 | 44.55 | 44.35 | 43.65
318.15 K | 47.35 | 45.15 | 45.05 | 44.95 | 44.85 | 44.65 | 44.15 | 43.75 | 43.55 | 42.95
328.15 K | 46.55 | 44.35 | 44.25 | 44.15 | 44.05 | 43.85 | 43.35 | 42.95 | 42.75 | 42.25
338.15 K | 45.75 | 43.55 | 43.45 | 43.35 | 43.25 | 43.05 | 42.55 | 42.15 | 41.95 | 41.55

CCCCn1cc[n+](C)c1.F[B-](F)(F)F [1-butyl-3-methylimidazolium tetrafluoroborate]
[2]
Details | surface tension liquid-gas [mN/m]
298.15 K | 44.6
308.15 K | 43.65
318.15 K | 42.95
328.15 K | 42.25
338.15 K | 41.55

O [water]
[2]
Details | surface tension liquid-gas [mN/m]
298.15 K | 71.8
308.15 K | 70.1
318.15 K | 68.4
328.15 K | 66.7
338.15 K | 65

O [water] + CCn1cc[n+](C)c1.F[B-](F)(F)F
[1], x2 = 0
Details | surface tension liquid-gas [mN/m]
298.15 K | 71.8
308.15 K | 70.1
318.15 K | 68.4
328.15 K | 66.7
338.15 K | 65

O [water] + CCCCn1cc[n+](C)c1.F[B-](F)(F)F
[1], x2 = 0
Details | surface tension liquid-gas [mN/m]
298.15 K | 71.8
308.15 K | 70.1
318.15 K | 68.4
328.15 K | 66.7
338.15 K | 65
